Type in all cases: cell-based
For experiment [1], the system named is Escherichia coli NCTC 10 418. The experiment in a line: Peptidase detection on Columbia medium with substrate. The following applies: 40 mg substrate in 400 ml Columbia medium, 24 hours at 37° C. On the set-up: key to Grow. (growth): NG: No growth; 0.5: weak growth; 1: moderate growth; 2: good growth.
Procedure: (§2) The 6 media were distributed into Petri dishes 90 mm in diameter, in a proportion of 20 ml per dish.
(§3) Seventeen strains of microorganisms stemming from collections and belonging to various species of bacteria and yeasts are inoculated in spots of approximately 10 000 colony-forming units.
(§4) The media are incubated for 24 hours at 37° C., and then the colonies formed are examined visually, with or without the addition of acid and under a UV lamp at 365 nm.
The test system of experiment [2] is Serratia marcescens NCTC 10 211. The description is as above. On the set-up: key to Grow. (growth): NG: No growth; 0.5: weak growth; 1: moderate growth; 2: good growth. The following applies: 40 mg substrate in 400 ml Columbia medium, 24 hours at 37° C.
Procedure: as §2, §3, §4
The test system of experiment [3] is Pseudomonas aeruginosa NCTC 10 662. The description is as above. On the set-up: key to Grow. (growth): NG: No growth; 0.5: weak growth; 1: moderate growth; 2: good growth. The following applies: 40 mg substrate in 400 ml Columbia medium, 24 hours at 37° C.
Procedure: as §2, §3, §4
Experiment [4] has as its system Yersinia enterocolitica NCTC 11 176. Described as above. On the set-up: key to Grow. (growth): NG: No growth; 0.5: weak growth; 1: moderate growth; 2: good growth. The following applies: 40 mg substrate in 400 ml Columbia medium, 24 hours at 37° C.
Procedure: as §2, §3, §4
The test system of experiment [5] is Salmonella typhimurium NCTC 74. Described as above. On the set-up: key to Grow. (growth): NG: No growth; 0.5: weak growth; 1: moderate growth; 2: good growth. The following applies: 40 mg substrate in 400 ml Columbia medium, 24 hours at 37° C.
Procedure: as §2, §3, §4
Experiment [6] relates to Enterobacter cloacae NCTC 11 936. The description is as above. On the set-up: key to Grow. (growth): NG: No growth; 0.5: weak growth; 1: moderate growth; 2: good growth. The following applies: 40 mg substrate in 400 ml Columbia medium, 24 hours at 37° C.
Procedure: as §2, §3, §4
The subject of experiment [7] is Providencia rettgeri NCTC 7 475. The description is as above. The following applies: 40 mg substrate in 400 ml Columbia medium, 24 hours at 37° C. On the set-up: key to Grow. (growth): NG: No growth; 0.5: weak growth; 1: moderate growth; 2: good growth.
Procedure: as §2, §3, §4
In experiment [8] the test system is Bacillus subtilis NCTC 9 372. Described as above. On the set-up: key to Grow. (growth): NG: No growth; 0.5: weak growth; 1: moderate growth; 2: good growth. The following applies: 40 mg substrate in 400 ml Columbia medium, 24 hours at 37° C.
Procedure: as §2, §3, §4
Experiment [9] has as its system Enterococcus faecalis NCTC 775. Described as above. The following applies: 40 mg substrate in 400 ml Columbia medium, 24 hours at 37° C. On the set-up: key to Grow. (growth): NG: No growth; 0.5: weak growth; 1: moderate growth; 2: good growth.
Procedure: as §2, §3, §4
In experiment [10] the test system is Enterococcus faecium NCTC 7 171. The description is as above. On the set-up: key to Grow. (growth): NG: No growth; 0.5: weak growth; 1: moderate growth; 2: good growth. The following applies: 40 mg substrate in 400 ml Columbia medium, 24 hours at 37° C.
Procedure: as §2, §3, §4
Experiment [11] has as its system Staphylococcus epidermidis NCTC 11 047. The description is as above. On the set-up: key to Grow. (growth): NG: No growth; 0.5: weak growth; 1: moderate growth; 2: good growth. The following applies: 40 mg substrate in 400 ml Columbia medium, 24 hours at 37° C.
Procedure: as §2, §3, §4
The test system of experiment [12] is Staphylococcus aureus NCTC 6 571. The description is as above. On the set-up: key to Grow. (growth): NG: No growth; 0.5: weak growth; 1: moderate growth; 2: good growth. The following applies: 40 mg substrate in 400 ml Columbia medium, 24 hours at 37° C.
Procedure: as §2, §3, §4
Experiment [13] concerns Staphylococcus aureus NCTC 11 939. Described as above. On the set-up: key to Grow. (growth): NG: No growth; 0.5: weak growth; 1: moderate growth; 2: good growth. The following applies: 40 mg substrate in 400 ml Columbia medium, 24 hours at 37° C.
Procedure: as §2, §3, §4
Experiment [14] has as its system Streptococcus pyogenes NCTC 8 306. Described as above. On the set-up: key to Grow. (growth): NG: No growth; 0.5: weak growth; 1: moderate growth; 2: good growth. The following applies: 40 mg substrate in 400 ml Columbia medium, 24 hours at 37° C.
Procedure: as §2, §3, §4
Experiment [15] relates to Listeria monocytogenes NCTC 11 994. Described as above. On the set-up: key to Grow. (growth): NG: No growth; 0.5: weak growth; 1: moderate growth; 2: good growth. The following applies: 40 mg substrate in 400 ml Columbia medium, 24 hours at 37° C.
Procedure: as §2, §3, §4
The subject of experiment [16] is Candida albicans ATCC 90 028. The experiment is described as above. The following applies: 40 mg substrate in 400 ml Columbia medium, 24 hours at 37° C. On the set-up: key to Grow. (growth): NG: No growth; 0.5: weak growth; 1: moderate growth; 2: good growth.
Procedure: as §2, §3, §4
In experiment [17] the test system is Candida glabrata NCPF 3 943. The experiment is described as above. On the set-up: key to Grow. (growth): NG: No growth; 0.5: weak growth; 1: moderate growth; 2: good growth. The following applies: 40 mg substrate in 400 ml Columbia medium, 24 hours at 37° C.
Procedure: as §2, §3, §4
The subject of experiment [18] is Citrobacter freundii NCTC 9750. Nature of the experiment: Colony color on lactose/sucrose agar medium with pH indicator. The following applies: indicator 0.05 g/l with lactose, sucrose and 5-bromo-4-chloro-3-indoxyl-β-D-glucopyranoside 0.05 g/l, 24 hours at 37° C., visual. How it is done:
(§1) Seven strains of microorganisms originating from the NCTC collection and belonging to various species of bacteria are inoculated onto these media by quadrant streaking of 10 μl of a suspension at 0.5 McFarland diluted to a 1/20.

The test system of experiment [19] is Enterobacter aerogenes NCTC 10 102. The experiment is described as above. The following applies: indicator 0.05 g/l with lactose, sucrose and 5-bromo-4-chloro-3-indoxyl-β-D-glucopyranoside 0.05 g/l, 24 hours at 37° C., visual. How it is done: as §1
Experiment [20] deals with Enterobacter cloacae NCTC 11 936. Described as above. The following applies: indicator 0.05 g/l with lactose, sucrose and 5-bromo-4-chloro-3-indoxyl-β-D-glucopyranoside 0.05 g/l, 24 hours at 37° C., visual. How it is done:
as §1

Experiment [21] concerns Escherichia coli NCTC 12 076. Described as above. The following applies: indicator 0.05 g/l with lactose, sucrose and 5-bromo-4-chloro-3-indoxyl-β-D-glucopyranoside 0.05 g/l, 24 hours at 37° C., visual. How it is done:
as §1

The test system of experiment [22] is Klebsiella pneumoniae NCTC 10 896. Described as above. The following applies: indicator 0.05 g/l with lactose, sucrose and 5-bromo-4-chloro-3-indoxyl-β-D-glucopyranoside 0.05 g/l, 24 hours at 37° C., visual. How it is done:
as §1

Experiment [23] concerns Morganella morganii NCTC 235. The description is as above. The following applies: indicator 0.05 g/l with lactose, sucrose and 5-bromo-4-chloro-3-indoxyl-β-D-glucopyranoside 0.05 g/l, 24 hours at 37° C., visual. Here is the method:
as §1

The subject of experiment [24] is Shigella boydii NCTC 9327. The description is as above. The following applies: indicator 0.05 g/l with lactose, sucrose and 5-bromo-4-chloro-3-indoxyl-β-D-glucopyranoside 0.05 g/l, 24 hours at 37° C., visual. Here is the method:
as §1

On to `C[n+]1ccc(C=Cc2ccc(NC(=O)CCN)cc2)cc1.[Cl-]` [β-Ala-ASPM^+, β-Alanyl-4-(4′-amidostyryl)-N-methyl-pyridinium chloride], for which the “Grow. (growth)” value was found to be 2 in experiment [1]; 2 in [2]; 2 in [3]; 2 in [4]; 1 in experiment [5]; 2 in experiment [6]. Also, the “Grow. (growth)” value in [7], in [8], in experiment [9], in experiment [10], in experiment [11] and in experiment [12] was 2 each time. The “Grow. (growth)” value in experiment [13] came to 2; in experiment [14] it was 1; in experiment [15], 2; in experiment [16], 2; in experiment [17], 1. For the same compound, the “Col. (colour of the colonies)” value in experiment [1] (visual) was “Green”; in experiment [2] (visual), “Orange”; in experiment [3] (visual), “Orange”; in experiment [4] (visual), “Pale green”; in experiment [5] (visual), “Pale green”; in [6] (visual), “Green”. In addition, the “Col. (colour of the colonies)” value in experiment [7] (visual) is on record as “Green”; in [8] (visual) it was “Pale green”; in experiment [9] (visual), “Pale green”; in experiment [10] (visual) it was “Pale green”; in experiment [11] (visual), “Green”; in experiment [12] (visual) it was “Green”. Besides, the “Col. (colour of the colonies)” value in experiment [13] (visual) is recorded as “Green”; in experiment [14] (visual) it was “Pale green”; in [15] (visual), “Pale green”; in experiment [16] (visual) it was “Pale green”; in experiment [17] (visual), “Pale green”.

On to `Nc1ccc(C=Cc2ccncc2)cc1` [4-4′-Aminostyrylpyridine, 4-(4′-Aminostyryl)pyridine], for which the Colony color entry in experiment [18] is reported as “Yellow”; in experiment [19], “Green”; in experiment [20] it was “Green”; in experiment [21] it was “Yellow”; in experiment [22] it was “Green”; in experiment [23] it was “Colorless”. For the same compound, the Colony color result in experiment [24] is reported as “Colorless”.
